Measurements reported in ChEMBL document CHEMBL1130886, “Serine derived NK1 antagonists. 1: The effect of modifications to the serine substituents” (Bioorg Med Chem Lett, 1998).

target: Substance-P receptor (Homo sapiens, UniProt P25103); test: Ability to displace [125I]-substance P from hNK1 receptor in chinese hamster ovarian (CHO) cells; format: cell-based
Sequence (P25103 whole entry): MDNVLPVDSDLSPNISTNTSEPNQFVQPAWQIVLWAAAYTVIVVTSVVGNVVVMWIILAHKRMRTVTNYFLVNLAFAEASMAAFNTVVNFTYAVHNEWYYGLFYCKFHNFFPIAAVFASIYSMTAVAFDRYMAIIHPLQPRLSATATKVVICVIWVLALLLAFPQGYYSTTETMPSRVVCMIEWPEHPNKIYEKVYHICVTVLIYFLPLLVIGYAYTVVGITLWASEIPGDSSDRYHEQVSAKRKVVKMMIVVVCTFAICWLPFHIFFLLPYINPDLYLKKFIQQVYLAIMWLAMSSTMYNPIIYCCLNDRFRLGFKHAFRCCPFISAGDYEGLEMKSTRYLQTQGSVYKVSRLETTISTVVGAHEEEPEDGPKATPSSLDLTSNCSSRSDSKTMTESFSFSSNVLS

| Structure (SMILES) | IC50 |
| --- | --- |
| CS(=O)(=O)N1CC2(CCN(C(=O)C(COCc3ccccc3)NCc3ccc(Cl)cc3)CC2)c2ccccc21 (centres undefined) | 27 nM |
| CS(=O)(=O)N1CC2(CCN(C(=O)[C@H](CSCc3ccc(Cl)c(Cl)c3)NCc3ccccc3)CC2)c2ccccc21 | 13 nM |
| CN(C)c1ccc(CNC(COCc2ccccc2)C(=O)N2CCC3(CC2)CN(S(C)(=O)=O)c2ccccc23)cc1 (centres undefined) | 33 nM |
| CS(=O)(=O)N1CC2(CCN(C(=O)C(COCc3ccccc3)NC(=O)Cc3ccc(Cl)c(Cl)c3)CC2)c2ccccc21 (centres undefined) | 43 nM |
| CS(=O)(=O)N1CC2(CCN(C(=O)C(COCc3ccccc3)NCc3c(Cl)cccc3Cl)CC2)c2ccccc21 (centres undefined) | 895 nM |
| CS(=O)(=O)N1CC2(CCN(C(=O)C(COCc3ccccc3)NCc3cccc(Cl)c3)CC2)c2ccccc21 (centres undefined) | 58 nM |
| CS(=O)(=O)N1CC2(CCN(C(=O)[C@H](COCc3ccccc3Cl)NCc3ccccc3)CC2)c2ccccc21 | 36 nM |
| CS(=O)(=O)N1CC2(CCN(C(=O)C(COCc3ccccc3)NCc3cccc(F)c3)CC2)c2ccccc21 (centres undefined) | 157 nM |
| CS(=O)(=O)N1CC2(CCN(C(=O)[C@H](COCc3ccccc3)NCc3ccc(Cl)c(Cl)c3)CC2)c2ccccc21 | 18 nM |
| CS(=O)(=O)N1CC2(CCN(C(=O)C(COCc3ccccc3)NCc3ccccc3)CC2)c2ccccc21 (centres undefined) | 80 nM |
| CS(=O)(=O)N1CC2(CCN(C(=O)C(COCc3ccccc3)NS(=O)(=O)c3ccc(Cl)c(Cl)c3)CC2)c2ccccc21 (centres undefined) | 88 nM |
| COc1ccc(CNC(COCc2ccccc2)C(=O)N2CCC3(CC2)CN(S(C)(=O)=O)c2ccccc23)cc1 (centres undefined) | 57 nM |
| CS(=O)(=O)N1CC2(CCN(C(=O)C(COCc3ccccc3)NCc3cccc(Br)c3)CC2)c2ccccc21 (centres undefined) | 60 nM |
| CS(=O)(=O)N1CC2(CCN(C(=O)[C@H](COCc3ccc(Cl)c(Cl)c3)NCc3ccc(Cl)c(Cl)c3)CC2)c2ccccc21 | 1.7 nM |
| CS(=O)(=O)N1CC2(CCN(C[C@H](COCc3ccc(Cl)c(Cl)c3)NCc3ccccc3)CC2)c2ccccc21 | 170 nM |
| CS(=O)(=O)N1CC2(CCN(C(=O)C(CNCc3ccc(Cl)c(Cl)c3)NCc3ccccc3)CC2)c2ccccc21 (centres undefined) | 24 nM |
| CS(=O)(=O)N1CC2(CCN(C(=O)C(COCc3ccccc3)NCc3cccc([N+](=O)[O-])c3)CC2)c2ccccc21 (centres undefined) | 120 nM |
| CN(Cc1ccc(Cl)c(Cl)c1)CC(NCc1ccccc1)C(=O)N1CCC2(CC1)CN(S(C)(=O)=O)c1ccccc12 (centres undefined) | 54 nM |
| CS(=O)(=O)N1CC2(CCN(C(=O)[C@H](COCc3ccc(Cl)cc3)NCc3ccccc3)CC2)c2ccccc21 | 6.6 nM |
| CS(=O)(=O)N1CC2(CCN(C(=O)C(COCc3ccccc3)NCc3cccc(Cl)c3Cl)CC2)c2ccccc21 (centres undefined) | 153 nM |

| Structure (SMILES) | IC50 |
| --- | --- |
| CS(=O)(=O)N1CC2(CCN(C(=O)C(COCc3ccccc3)NCc3ccccc3Cl)CC2)c2ccccc21 (centres undefined) | 542 nM |
| COc1cccc(CNC(COCc2ccccc2)C(=O)N2CCC3(CC2)CN(S(C)(=O)=O)c2ccccc23)c1 (centres undefined) | 71 nM |
| CS(=O)(=O)N1CC2(CCN(C(=O)C(COCc3ccccc3)NC(=O)c3ccc(Cl)c(Cl)c3)CC2)c2ccccc21 (centres undefined) | 260 nM |
| CS(=O)(=O)N1CC2(CCN(C(=O)[C@H](COCc3ccccc3Cl)NCc3ccc(Cl)c(Cl)c3)CC2)c2ccccc21 | 34 nM |
| CS(=O)(=O)N1CC2(CCN(C(=O)C(COCc3ccccc3)NCc3ccc(Cl)c(Cl)c3)CC2)c2ccccc21 (centres undefined) | 12 nM |
| CS(=O)(=O)N1CC2(CCN(C(=O)[C@H](COCc3cccc(Cl)c3)NCc3ccc(Cl)c(Cl)c3)CC2)c2ccccc21 | 11 nM |
| CS(=O)(=O)N1CC2(CCN(C(=O)[C@H](COCc3cccc(Cl)c3)NCc3ccccc3)CC2)c2ccccc21 | 7.7 nM |
| CS(=O)(=O)N1CC2(CCN(C(=O)[C@@H](COCc3ccccc3)NCc3ccc(Cl)c(Cl)c3)CC2)c2ccccc21 | 42 nM |
| CS(=O)(=O)N1CC2(CCN(C(=O)C(COCc3ccccc3)NCc3ccc(Cl)cc3Cl)CC2)c2ccccc21 (centres undefined) | 100 nM |
| CS(=O)(=O)N1CC2(CCN(C(=O)[C@H](COCc3ccc(Cl)cc3)NCc3ccc(Cl)c(Cl)c3)CC2)c2ccccc21 | 23 nM |
| CS(=O)(=O)N1CC2(CCN(C(=O)[C@H](CS(=O)(=O)Cc3ccc(Cl)c(Cl)c3)NCc3ccccc3)CC2)c2ccccc21 | 63 nM |
| COc1ccccc1CNC(COCc1ccccc1)C(=O)N1CCC2(CC1)CN(S(C)(=O)=O)c1ccccc12 (centres undefined) | 163 nM |
| CS(=O)(=O)N1CC2(CCN(C(=O)C(N)COCc3ccccc3)CC2)c2ccccc21 (centres undefined) | 2000 nM |
| CS(=O)(=O)N1CC2(CCN(C(=O)C(CCc3ccc(Cl)c(Cl)c3)NCc3ccccc3)CC2)c2ccccc21 (centres undefined) | 455 nM |
| CS(=O)(=O)N1CC2(CCN(C(=O)[C@H](COCc3cc(C(F)(F)F)cc(C(F)(F)F)c3)NC(=O)c3ccc(Cl)c(Cl)c3)CC2)c2ccccc21 | 1300 nM |
| CS(=O)(=O)N1CC2(CCN(C(=O)C(CCCc3ccc(Cl)c(Cl)c3)NCc3ccccc3)CC2)c2ccccc21 (centres undefined) | 3.3 nM |
| CS(=O)(=O)N1CC2(CCN(C(=O)C(COCc3ccccc3)NCc3cc(Cl)cc(Cl)c3)CC2)c2ccccc21 (centres undefined) | 79 nM |
| CS(=O)(=O)N1CC2(CCN(C(=O)C(COCc3ccccc3)NCc3cccc(C#N)c3)CC2)c2ccccc21 (centres undefined) | 152 nM |
| Cc1cccc(CNC(COCc2ccccc2)C(=O)N2CCC3(CC2)CN(S(C)(=O)=O)c2ccccc23)c1 (centres undefined) | 55 nM |
